Measurements published in US20250186546A1, “Compositions and Methods to Prevent, Inhibit or Treat Autoimmune and Vascular Disease” (priority 2023, published 2025).

How the values were obtained:
BMDMs = experiment: Engulfment of ACs with increased rigidity by BMDMs; assay type: cell-based, mouse; settings: GA 10 nM, 1 minute, control and Wdfy3 knockout BMDMs
Description: AC preparation and labeling for efferocytosis assays: Jurkat cells (about 10 μm, a human T cell line) and mouse thymocytes (about 5 μm, isolated from mouse thymi) are treated with staurosporine for 3 hours to induce apoptosis. The method routinely yields greater than 90% Annexin V+ ACs (Shi et al., 2022). […] Mouse RBC are isolated from whole blood freshly and opsonized by IgG (Sosale et al., 2015). Storage at 4° C. for one-week or treatment by GA increases rigidity (Sosale et al., 2015). Mouse RBC are freshly prepared because commercial RBCs are often stored in cold conditions for shipment and thus likely already have increased rigidity. Cells will be labeled by TAMRA (10 μg/mL, 25 minutes, Invitrogen #C1171) that labels both DNA and protein (Shi et al., 2022; Bi et al., 2022). To assess uptake and acidification, ACs are fluorescently labeled by TAMRA (pH-insensitive) and pHrodo (20 ng/mL, 30 minutes, ThermoFisher #P35373, pH-sensitive and only fluoresces in acidic environments) (Shi et al., 2022; Bi et al., 2022). RBC are labeled by PKH26 which labels membrane lipids (Sigma PKH26GL-1KT) (Shi et al., 2022). Cell debris is prepared by passing labeled ACs 10 times through 27G needles (Puigdellivol et al., 2021). […] The % of macrophages that engulfed cargo will be quantified by FACS (Shi et al., 2022).

Jurkat cells = experiment: Induction of apoptosis in Jurkat cells; assay type: cell-based, human; settings: 5 μg/mL, 3 hours
Description: Apoptotic Jurkat cells were generated by treating Jurkat cells with 5 μg/mL staurosporine in RPMI-1640 medium for 3 hours at a density of 2.5×10^6 cells/mL at 37° C., 5% CO2. The method routinely yields greater than 90% Annexin V^+ apoptotic Jurkat cells. After washing in 1×DPBS, apoptotic Jurkat cells were resuspended at a concentration of 2×10^7 cells/mL in Diluent C with either PKH67 (green fluorescence) or PKH26 (red fluorescence) per the manufacturer's instruction. After labeling, the cells were rinsed twice with DMEM basal medium containing 10% HI-FBS and immediately used for efferocytosis assay. For labeling with other fluorescent probes, ACs were resuspended at a density of 2.5×10^6 cells/mL in DMEM basal media and incubated with 20 ng/mL pHrodo red (Life Technologies) and/or Hoechst 33342 solution (20 mM, 1:10,000 dilution, Thermo Scientific) for 30 minutes, or NuclearMask Blue Stain solution (1:2000 dilution, Invitrogen) for 30 minutes. TAMRA staining was applied to ACs at a concentration of 2×10^7 cells/mL in DMEMbasal medium at 10 μg/mL for 25 minutes.

[1] = test system: Jurkat cells and mouse thymocytes; experiment: AC preparation for efferocytosis assays (Example 2); assay type: cell-based, human; settings: 3 hours
Description: AC preparation and labeling for efferocytosis assays: Jurkat cells (about 10 μm, a human T cell line) and mouse thymocytes (about 5 μm, isolated from mouse thymi) are treated with staurosporine for 3 hours to induce apoptosis. The method routinely yields greater than 90% Annexin V+ ACs (Shi et al., 2022). GA treatment at 10 mM for 1-minute leads to an increase in cell rigidity (Sosale et al., 2015). Mouse RBC are isolated from whole blood freshly and opsonized by IgG (Sosale et al., 2015). Storage at 4° C. for one-week or treatment by GA increases rigidity (Sosale et al., 2015). Mouse RBC are freshly prepared because commercial RBCs are often stored in cold conditions for shipment and thus likely already have increased rigidity. Cells will be labeled by TAMRA (10 μg/mL, 25 minutes, Invitrogen #C1171) that labels both DNA and protein (Shi et al., 2022; Bi et al., 2022). To assess uptake and acidification, ACs are fluorescently labeled by TAMRA (pH-insensitive) and pHrodo (20 ng/mL, 30 minutes, ThermoFisher #P35373, pH-sensitive and only fluoresces in acidic environments) (Shi et al., 2022; Bi et al., 2022). RBC are labeled by PKH26 which labels membrane lipids (Sigma PKH26GL-1KT) (Shi et al., 2022). Cell debris is prepared by passing labeled ACs 10 times through 27G needles (Puigdellivol et al., 2021). […] The % of macrophages that engulfed cargo will be quantified by FACS (Shi et al., 2022).

O=CCCCC=O [Glutaraldehyde]
engulfment of GA-treated (rigid) ACs by BMDMs (BMDMs): increased engulfment
engulfment of GA-treated (rigid) ACs by BMDMs (BMDMs; listed as GA): more effective engulfment

CN[C@@H]1C[C@H]2O[C@@](C)([C@@H]1OC)n1c3ccccc3c3c4c(c5c6ccccc6n2c5c31)C(=O)NC4 [staurosporine]
Annexin V+ apoptotic Jurkat cells (Jurkat cells): greater than 90%
Annexin V+ ACs [1]: greater than 90%
